{"source": "patent US20260130921A1", "about": "“TREATMENT OF VIRAL INFECTIONS WITH COMBINATION OF PIKFYVE KINASE INHIBITORS AND TMPRSS-2 INHIBITORS” (AcuraStem Incorporated, priority 2020, published 2026)", "data": [{"molecular_target": "PIKFYVE (Homo sapiens, UniProt Q9Y2I7)", "sequence (Q9Y2I7 whole entry)": "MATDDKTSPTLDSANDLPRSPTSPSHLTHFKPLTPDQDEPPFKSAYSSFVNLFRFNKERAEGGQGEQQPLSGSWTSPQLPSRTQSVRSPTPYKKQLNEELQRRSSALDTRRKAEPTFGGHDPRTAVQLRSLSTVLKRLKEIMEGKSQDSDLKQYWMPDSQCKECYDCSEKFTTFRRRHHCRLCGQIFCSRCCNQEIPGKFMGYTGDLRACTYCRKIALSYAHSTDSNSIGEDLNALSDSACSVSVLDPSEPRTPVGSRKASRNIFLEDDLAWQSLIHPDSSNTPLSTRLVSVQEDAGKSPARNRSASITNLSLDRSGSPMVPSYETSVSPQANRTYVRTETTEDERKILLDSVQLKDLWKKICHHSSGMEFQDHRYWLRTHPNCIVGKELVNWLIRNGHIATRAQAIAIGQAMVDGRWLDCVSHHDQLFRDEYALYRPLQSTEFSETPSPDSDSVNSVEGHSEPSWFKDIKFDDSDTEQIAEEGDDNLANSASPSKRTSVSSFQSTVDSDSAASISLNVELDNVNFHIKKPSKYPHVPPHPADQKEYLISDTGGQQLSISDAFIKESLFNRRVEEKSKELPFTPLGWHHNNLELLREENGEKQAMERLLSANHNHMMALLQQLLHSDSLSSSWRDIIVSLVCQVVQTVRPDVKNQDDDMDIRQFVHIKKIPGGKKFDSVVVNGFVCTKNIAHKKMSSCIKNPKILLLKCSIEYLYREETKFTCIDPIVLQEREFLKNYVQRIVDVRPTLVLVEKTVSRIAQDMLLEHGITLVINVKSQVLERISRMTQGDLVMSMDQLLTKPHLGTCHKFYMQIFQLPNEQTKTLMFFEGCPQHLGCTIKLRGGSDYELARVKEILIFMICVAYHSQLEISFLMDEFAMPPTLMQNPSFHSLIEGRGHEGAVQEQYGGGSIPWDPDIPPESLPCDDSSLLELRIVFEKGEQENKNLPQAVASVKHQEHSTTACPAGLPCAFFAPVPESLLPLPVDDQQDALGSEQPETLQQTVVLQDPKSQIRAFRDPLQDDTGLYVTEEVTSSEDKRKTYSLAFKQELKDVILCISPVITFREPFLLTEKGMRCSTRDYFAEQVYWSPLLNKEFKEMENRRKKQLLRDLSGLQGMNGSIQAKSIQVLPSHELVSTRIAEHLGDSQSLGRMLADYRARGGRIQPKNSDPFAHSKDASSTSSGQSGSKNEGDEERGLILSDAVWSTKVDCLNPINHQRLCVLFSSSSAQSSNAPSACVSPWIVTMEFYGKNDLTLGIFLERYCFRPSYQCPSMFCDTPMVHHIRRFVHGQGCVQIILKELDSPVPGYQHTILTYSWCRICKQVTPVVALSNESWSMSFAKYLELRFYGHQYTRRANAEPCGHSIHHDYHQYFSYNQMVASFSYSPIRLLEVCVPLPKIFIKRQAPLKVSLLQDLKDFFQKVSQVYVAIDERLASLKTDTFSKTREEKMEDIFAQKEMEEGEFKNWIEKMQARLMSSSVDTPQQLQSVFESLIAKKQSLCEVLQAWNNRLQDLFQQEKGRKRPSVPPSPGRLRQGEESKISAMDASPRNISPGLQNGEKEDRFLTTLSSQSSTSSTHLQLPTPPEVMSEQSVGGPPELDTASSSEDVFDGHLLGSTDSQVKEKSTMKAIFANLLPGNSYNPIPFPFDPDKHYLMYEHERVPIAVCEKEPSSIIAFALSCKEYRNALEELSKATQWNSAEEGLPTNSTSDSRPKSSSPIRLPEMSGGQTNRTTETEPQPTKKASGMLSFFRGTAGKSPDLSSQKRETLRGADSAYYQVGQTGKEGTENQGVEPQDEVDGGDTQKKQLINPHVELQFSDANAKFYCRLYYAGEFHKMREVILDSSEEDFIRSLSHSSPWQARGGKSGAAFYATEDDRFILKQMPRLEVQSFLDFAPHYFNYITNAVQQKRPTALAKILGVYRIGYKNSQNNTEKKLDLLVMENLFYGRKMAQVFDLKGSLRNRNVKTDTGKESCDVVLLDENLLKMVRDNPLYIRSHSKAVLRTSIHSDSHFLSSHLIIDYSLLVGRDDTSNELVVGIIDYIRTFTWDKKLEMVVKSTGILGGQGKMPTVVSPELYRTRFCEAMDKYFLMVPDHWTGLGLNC", "test": "PIKFYVE assay (luciferase ADP-Glo kinase assay, Promega)", "assay_type": "biochemical", "conditions": "Table 2", "procedure": "The activity of Compounds 1-20 was measured using a PIKFYVE assay (luciferase ADP-Glo kinase assay available from Promega Corp. of Madison, WI).\nThe activity of Compounds 39-90 was also measured using a PIKFYVE assay (luciferase ADP-Glo kinase assay available from Promega Corp. of Madison, WI).", "units": {"IC50": "nM"}, "values": [{"compound": "CN(C)Cc1cc(-c2ccccc2)nn1-c1cc(N2CCOCC2)nc(OCCc2cnn(C)c2)n1", "note": "[Compound 75]", "IC50": "< 50"}, {"compound": "Cc1cn(-c2cc(N3CCOCC3)nc(OCCc3cnn(C)c3)n2)nc1-c1ccccc1", "note": "[Compound 63]", "IC50": "< 500"}, {"compound": "COCC(O)c1nc(N2CCOCC2)cc(-n2ccc(-c3cccc(C)c3)n2)n1", "note": "(stereo not shown) [Compound 49]", "IC50": "< 50"}, {"compound": "Cc1cccc(-c2ccn(-c3cc(N4CC[C@H]5OCC[C@H]54)nc(C(O)CO)n3)n2)c1", "note": "(stereo partly shown) [Compound 48]", "IC50": "< 500"}, {"compound": "Cc1cccc(-c2ccn(-c3cc(N4CCOCC4)nc(OC[C@H](O)c4ccccc4)n3)n2)c1", "note": "[Compound 58]", "IC50": "< 5"}, {"compound": "Cc1cccc(-c2ccn(-c3cc(N4CCOCC4)nc(Cc4ccccc4)n3)n2)c1", "note": "[Compound 42]", "IC50": "< 500"}, {"compound": "Clc1ccc(-c2ccn(-c3cc(N4CCOCC4)nc(OCCc4ccccn4)n3)n2)cc1", "note": "[Compound 40]", "IC50": "< 500"}, {"compound": "COCc1nc(N2CCOCC2)cc(-n2ccc(-c3ccccc3)n2)n1", "note": "[Compound 69]", "IC50": "< 50"}, {"compound": "COC(c1ccccc1)c1nc(N2CCOCC2)cc(-n2ccc(-c3ccccc3)n2)n1", "note": "(stereo not shown) [Compound 78]", "IC50": "< 50"}, {"compound": "OCC(O)COc1nc(N2CCOCC2)cc(-n2ncc3ccccc32)n1", "note": "(stereo not shown) [Compound 53]", "IC50": "< 500"}, {"compound": "Fc1ccc(-c2cnn(-c3cc(N4CC[C@H]5OCC[C@H]54)nc(CCCc4ccccn4)n3)c2)cc1", "note": "[Compound 41]", "IC50": "< 10000"}, {"compound": "Cc1cccc(-c2ccn(-c3nc(NCCc4cnccn4)cc(N4CCOCC4)n3)n2)c1", "note": "[Compound 47]", "IC50": "< 50"}, {"compound": "c1ccc(-c2cn(-c3cc(N4CCOCC4)nc(OCCc4ccccn4)n3)cn2)cc1", "note": "[Compound 39]", "IC50": "< 10000"}, {"compound": "COCc1cc(-c2ccccc2)n(-c2cc(N3CCOCC3)nc(OCCc3cnn(C)c3)n2)n1", "note": "[Compound 77]", "IC50": "< 50"}, {"compound": "CCOC(=O)c1ccn(-c2cc(N3CCOCC3)nc(OCCc3ccn(C)n3)n2)n1", "note": "[Compound 70]", "IC50": "< 50"}, {"compound": "Cc1cccc(-c2ccn(-c3cc(N4CCOCC4)nc(C(F)(F)F)n3)n2)c1", "note": "[Compound 82]", "IC50": "< 50"}, {"compound": "Cc1cccc(-c2ccn(-c3cc(N4CCOCC4)nc(N4CCCC4=O)n3)n2)c1", "note": "[Compound 61]", "IC50": "< 50"}, {"compound": "COc1cc(N2CCOCC2)nc(-n2ccc(-c3cccc(C)c3)n2)n1", "note": "[Compound 87]", "IC50": "< 500"}, {"compound": "Cc1cccc(-c2ccn(-c3cc(N4CCOCC4)ncn3)n2)c1", "note": "[Compound 60]", "IC50": "< 500"}, {"compound": "Cc1cccc(-c2ccn(-c3nc(NCCc4ccccn4)cc(N4CCOCC4)n3)n2)c1", "note": "[Compound 46]", "IC50": "< 50"}, {"compound": "CC(C)(C)c1ccn(-c2cc(N3CCOCC3)nc(OCC(O)CO)n2)n1", "note": "(stereo not shown) [Compound 51]", "IC50": "< 10000"}, {"compound": "OCC(O)COc1nc(N2CCOCC2)cc(-n2cc3ccccc3n2)n1", "note": "(stereo not shown) [Compound 52]", "IC50": "< 500"}, {"compound": "c1cc(-c2cc(N3CCOCC3)nc(OCC3CCCO3)n2)n[nH]1", "note": "(stereo not shown) [Compound 45]", "IC50": "< 500"}, {"compound": "Cc1cccc(-c2ccn(-c3cc(N4CCOCC4)nc(OC[C@@H](O)c4ccccc4)n3)n2)c1", "note": "[Compound 57]", "IC50": "< 5"}, {"compound": "COc1nc(N2CCOCC2)cc(-n2ccc(-c3cccc(C)c3)n2)n1", "note": "[Compound 59]", "IC50": "< 50"}, {"compound": "COc1nc(N2CCOCC2)c(C)c(-n2ccc(-c3cccc(C)c3)n2)n1", "note": "[Compound 83]", "IC50": "< 500"}, {"compound": "CNc1nc(N2CCOCC2)cc(-n2nc(-c3ccccc3)cc2C)n1", "note": "[Compound 85]", "IC50": "< 500"}, {"compound": "OCc1nc(N2CCOCC2)cc(-n2ccc(-c3ccccc3)n2)n1", "note": "[Compound 84]", "IC50": "< 50"}]}]}
